Source: US20040258620A1, “(Ethylene)-( propylene)-triaminepentaacetic acid derivatives, process for their production, and their use for the production of pharmaceutical agents” (priority 2001, published 2004)
Values joined by “and” are separate entries in the source; they are usually repeats but may differ in a detail not shown here. Equal values may be shown once.

What was measured:
[1] = Stability constants of the Ca complexes by pH-potentiometry; format: physicochemical; details: for logKCaL: stability constant
From the text: (§1) Protonation constants of the two ligands, DPTPA and EPTPA-Bz-NO2, and stability constants of their complexes formed with Gd(III) and some endogenously available cations have been determined by pH-potentiometry. The selectivity of the ligand for Gd(III) over Zn(II) (log(KGdL/KZnL)) is especially important as it directly relates to the safety of the Gd(III) contrast agent.

[2] = Protonation constants of the ligands by pH-potentiometry; format: physicochemical; details: protonation constant of the ligand; I=0.1M TMACI, t=25° C.
From the text: as §1

[3] = Stability constants of the complexes formed with Gd(III) by pH-potentiometry; format: physicochemical; details: I=0.1M TMACI, t=25° C.; for logKGdL: stability constant
From the text: as §1

[4] = Stability constants of the complexes formed with Zn(II) by pH-potentiometry; format: physicochemical; details: I=0.1M TMACI, t=25° C.; for logKZnL: stability constant
From the text: as §1

[5] = Simultaneous analysis of 17O NMR, EPR and NMRD data
From the text: The ^17O NMR, NMRD and EPR experimental data (points) and the fitted curves (lines) as obtained in a simultaneous analysis, according to the method of Powell et al., J. Am. Chem. Soc.

[6] = Proton relaxivities (1H NMRD profiles) of Gd(EPTPA-bz-NO2); format: physicochemical
Procedure: According to the ^17O chemical shifts, the complex has one inner sphere water molecule. […] The water exchange rate obtained for […]) is in the optimal range to attain high proton relaxivities. This property, together with the high thermodynamic stability, is a unique feature among Gd(III) chelates known so far and it makes […]) an ideal synthon to be attached to any rigid, slowly tumbling macromolecular agent. […] (bottom curve) and 25° C. (top curve).

[7] = Peak-to-peak line widths of the EPR band at 0.34 T; format: physicochemical; design: unit not given here
From the text: (§2) The Gd(EPTPA-bz-NO2) complex (Formula VII, Z is NO2) has been investigated by ^17O NMR, EPR and ^1H NMRD.

[8] = Variable temperature 17O NMR relaxation rates and chemical shifts of GdEPTPA-bz-NO2; format: physicochemical; details: for ^17O NMR T1 / ^17O NMR T2 / ^17O NMR ν / ^17O NMR chemical shift Δw / ^17O NMR reduced chemical shift Δwr: C = 55.79 mM; for ^17O NMR T1 / ^17O NMR T2 / ^17O NMR ν: pH = 6.0; for ^17O NMR chemical shift Δw / ^17O NMR reduced chemical shift Δwr: pH = 6.0, reference = HClO4
From the text: as §2

[9] = Gd(III) complex of the ligand, water exchange

## O=C(O)CN(CCCN(CC(=O)O)CC(=O)O)CCCN(CC(=O)O)CC(=O)O [DPTPA]
[1]
  logKCaH2L: 6.01
  logKCaHL: 8.63
  logKCaL: 6.01
[2]
  pKa1: 10.91
  pKa2: 9.29
  pKa3: 7.07
  pKa4: 2.76
  pKa5: 2.19
[3]
  logKGdH2L: 5.43
  logKGdHL: 6.30
  logKGdL: 13.00
[4]
  logKZnH2L: 3.17
  logKZnHL: 8.06
  logKZnL: 15.60

## O=C(O)CN(CCCN(CC(=O)O)CC(Cc1ccc([N+](=O)[O-])cc1)N(CC(=O)O)CC(=O)O)CC(=O)O (stereo not shown) [EPTPA-bz-NO2]
[1]
  logKCaHL: 7.04
  logKCaL: 10.02
[2]
  pKa1: 10.86
  pKa2: 8.94
  pKa3: 4.70
  pKa4: 3.25
  pKa5: 2.51
[5]; Gd(III) complex of the ligand
  A/ħ: −3.5 ± 0.2 10^6 rad s^−1
  Er: 4.76 ± 0.406 kcal/mol
  Δ^2: 0.37 ± 0.03 10^20 s^−1
  τr: 84.6 ± 6 ps
  τy: 20 ± 1 ps
[5]; [9]
  ΔH^‡: 5.66 ± 0.43 kcal/mol
  ΔS^‡: −9.2 ± 4.0 J mol^−1K^−1
[5]; Gd(III) complex of the ligand, water exchange rate
  kex^298: 146 ± 23 10^6 s^−1
[3]
  logKGdH2L: 2.40
  logKGdHL: 3.35
  logKGdL: 19.31
[4]
  logKZnH2L: 2.53
  logKZnHL: 8.99
  logKZnL: 16.01

## O=C([O-])CN(CCCN(CC(=O)[O-])CC(Cc1ccc([N+](=O)[O-])cc1)N(CC(=O)[O-])CC(=O)[O-])CC(=O)[O-].[Gd+3] (stereo not shown) [Gd(EPTPA-bz-NO2)]
[6]; 24.8° C., proton Larmor frequency 0.022 MHz
  Proton relaxivity: 8.54 mM⁻¹ s⁻¹
[6]; 24.8° C., proton Larmor frequency 0.036 MHz
  Proton relaxivity: 8.63 mM⁻¹ s⁻¹
[6]; 24.8° C., proton Larmor frequency 0.061 MHz
  Proton relaxivity: 8.69 mM⁻¹ s⁻¹
[6]; 24.8° C., proton Larmor frequency 0.101 MHz
  Proton relaxivity: 8.34 mM⁻¹ s⁻¹
[6]; 24.8° C., proton Larmor frequency 0.168 MHz
  Proton relaxivity: 8.47 mM⁻¹ s⁻¹
[6]; 24.8° C., proton Larmor frequency 0.280 MHz
  Proton relaxivity: 8.55 mM⁻¹ s⁻¹
[6]; 24.8° C., proton Larmor frequency 0.467 MHz
  Proton relaxivity: 8.21 mM⁻¹ s⁻¹
[6]; 24.8° C., proton Larmor frequency 0.778 MHz
  Proton relaxivity: 8.29 mM⁻¹ s⁻¹ and 8.39 mM⁻¹ s⁻¹
[6]; 24.8° C., proton Larmor frequency 2.159 MHz
  Proton relaxivity: 7.41 mM⁻¹ s⁻¹
[6]; 24.8° C., proton Larmor frequency 3.598 MHz
  Proton relaxivity: 7.23 mM⁻¹ s⁻¹
[6]; 24.8° C., proton Larmor frequency 5.999 MHz
  Proton relaxivity: 6.33 mM⁻¹ s⁻¹
[6]; 24.8° C., proton Larmor frequency 9.998 MHz
  Proton relaxivity: 5.56 mM⁻¹ s⁻¹
[6]; 24.8° C., proton Larmor frequency 12.001 MHz
  Proton relaxivity: 5.47 mM⁻¹ s⁻¹
[6]; 24.8° C., proton Larmor frequency 14.002 MHz
  Proton relaxivity: 5.15 mM⁻¹ s⁻¹
[6]; 24.8° C., proton Larmor frequency 16.000 MHz
  Proton relaxivity: 4.98 mM⁻¹ s⁻¹
[6]; 24.8° C., proton Larmor frequency 18.002 MHz
  Proton relaxivity: 4.91 mM⁻¹ s⁻¹
[6]; 24.8° C., proton Larmor frequency 20.001 MHz
  Proton relaxivity: 4.73 mM⁻¹ s⁻¹
[6]; 37.3° C., proton Larmor frequency 0.022 MHz
  Proton relaxivity: 6.47 mM⁻¹ s⁻¹
[6]; 37.3° C., proton Larmor frequency 0.036 MHz
  Proton relaxivity: 6.56 mM⁻¹ s⁻¹
[6]; 37.3° C., proton Larmor frequency 0.061 MHz
  Proton relaxivity: 6.44 mM⁻¹ s⁻¹
[6]; 37.3° C., proton Larmor frequency 0.101 MHz
  Proton relaxivity: 6.90 mM⁻¹ s⁻¹
[6]; 37.3° C., proton Larmor frequency 0.168 MHz
  Proton relaxivity: 6.55 mM⁻¹ s⁻¹
[6]; 37.3° C., proton Larmor frequency 0.280 MHz
  Proton relaxivity: 6.57 mM⁻¹ s⁻¹
[6]; 37.3° C., proton Larmor frequency 0.467 MHz
  Proton relaxivity: 6.49 mM⁻¹ s⁻¹
[6]; 37.3° C., proton Larmor frequency 0.778 MHz
  Proton relaxivity: 6.19 mM⁻¹ s⁻¹ and 6.36 mM⁻¹ s⁻¹
[6]; 37.3° C., proton Larmor frequency 2.159 MHz
  Proton relaxivity: 5.80 mM⁻¹ s⁻¹
[6]; 37.3° C., proton Larmor frequency 3.598 MHz
  Proton relaxivity: 5.67 mM⁻¹ s⁻¹
[6]; 37.3° C., proton Larmor frequency 5.999 MHz
  Proton relaxivity: 5.21 mM⁻¹ s⁻¹
[6]; 37.3° C., proton Larmor frequency 9.998 MHz
  Proton relaxivity: 4.42 mM⁻¹ s⁻¹
[6]; 37.3° C., proton Larmor frequency 12.001 MHz
  Proton relaxivity: 4.18 mM⁻¹ s⁻¹
[6]; 37.3° C., proton Larmor frequency 14.002 MHz
  Proton relaxivity: 4.20 mM⁻¹ s⁻¹
[6]; 37.3° C., proton Larmor frequency 16.000 MHz
  Proton relaxivity: 4.26 mM⁻¹ s⁻¹
[6]; 37.3° C., proton Larmor frequency 18.002 MHz
  Proton relaxivity: 4.12 mM⁻¹ s⁻¹
[5]
  water exchange rate kex^298: 1.4e+08 s⁻¹
[5]; relative to Gd(DTPA)
  water exchange rate, times higher than that measured on Gd(DTPA): 40 times
[7]; T 3 ° C.
  ΔHpp, peak-to-peak line width of the EPR band: 363.25
[7]; T 23.5 ° C.
  ΔHpp, peak-to-peak line width of the EPR band: 297.4
[7]; T 34.1 ° C.
  ΔHpp, peak-to-peak line width of the EPR band: 286
[7]; T 40.3 ° C.
  ΔHpp, peak-to-peak line width of the EPR band: 280.2
[7]; T 47.6 ° C.
  ΔHpp, peak-to-peak line width of the EPR band: 283.15
[7]; T 56.3 ° C.
  ΔHpp, peak-to-peak line width of the EPR band: 297.4
[7]; T 72.4 ° C.
  ΔHpp, peak-to-peak line width of the EPR band: 326
[8]; T 274.5 K
  ^17O NMR T1: 0.00301 s
  ^17O NMR T2: 0.00135 s
  ^17O NMR ν: −3678.6 Hz
  ^17O NMR chemical shift Δw: −133.1 Hz
  ^17O NMR reduced chemical shift Δwr: −8.33E+05 Hz
[8]; T 286.7 K
  ^17O NMR T1: 0.00428 s
  ^17O NMR T2: 0.00167 s
  ^17O NMR ν: −3686.0 Hz
  ^17O NMR chemical shift Δw: −125.36 Hz
  ^17O NMR reduced chemical shift Δwr: −7.84E+05 Hz
[8]; T 293.5 K
  ^17O NMR T1: 0.00513 s
  ^17O NMR T2: 0.00198 s
  ^17O NMR ν: −3690.4 Hz
  ^17O NMR chemical shift Δw: −125.25 Hz
  ^17O NMR reduced chemical shift Δwr: −7.84E+05 Hz
[8]; T 298.0 K
  ^17O NMR T1: 0.00599 s
  ^17O NMR T2: 0.00263 s
  ^17O NMR ν: −3705.7 Hz
  ^17O NMR chemical shift Δw: −123.5 Hz
  ^17O NMR reduced chemical shift Δwr: −7.73E+05 Hz
[8]; T 306.7 K
  ^17O NMR T1: 0.00734 s
  ^17O NMR T2: 0.00263 s
  ^17O NMR ν: −3702.7 Hz
  ^17O NMR chemical shift Δw: −120.4 Hz
  ^17O NMR reduced chemical shift Δwr: −7.53E+05 Hz
[8]; T 324.2 K
  ^17O NMR T1: 0.0104 s
  ^17O NMR T2: 0.00425 s
  ^17O NMR ν: −3751.5 Hz
  ^17O NMR chemical shift Δw: −121.2 Hz
  ^17O NMR reduced chemical shift Δwr: −7.58E+05 Hz
[8]; T 338.7 K
  ^17O NMR T1: 0.0137 s
  ^17O NMR T2: 0.00616 s
  ^17O NMR ν: −3764.2 Hz
  ^17O NMR chemical shift Δw: −99.4 Hz
  ^17O NMR reduced chemical shift Δwr: −6.22E+05 Hz
[8]; T 359.7 K
  ^17O NMR T1: 0.0189 s
  ^17O NMR T2: 0.00967 s
  ^17O NMR ν: −3803.0 Hz
  ^17O NMR chemical shift Δw: −95.8 Hz
  ^17O NMR reduced chemical shift Δwr: −5.99E+05 Hz
[8]; according to the ^17O chemical shifts
  inner sphere water molecules of the complex: one
